Measured values published in US20120231141A1, “BITTERNESS-IMPROVING AGENT FOR BITTER FOOD AND DRINK AND ASTRINGENCY-IMPROVING AGENT FOR ASTRINGENT FOOD AND DRINK” (priority 2009, published 2012).

What was measured:
[1] = Bitterness evaluation of grapefruit juice (flavor comparison by 10 panelists); assay type: in vivo; details: for A: the number of panelists who felt no difference from 3-n-butylphthalide-free / B: the number of panelists who felt some reduction in bitterness / Flavor judgment: the number of panelists who judged it as most proper bitterness / N: the number of panelists who hardly felt bitterness: 10 panelists
Method: 3-n-Butylphthalide was added as a bitterness-improving agent (masking agent for bitterness) of the present invention to commercially available grapefruit juice at the concentrations shown in the following Table 2 to obtain grapefruit juice.

[2] = Bitterness evaluation of green tea drink (flavor comparison by 10 panelists); assay type: in vivo; details: for A: the number of panelists who felt no difference from sedanolide-free / B: the number of panelists who fell some reduction in bitterness / Flavor judgment: the number of panelists who judged it as most proper bitterness / N: the number of panelists who hardly felt bitterness: 10 panelists
Method: Five thousand grams of hot water (containing 0.03% of sodium ascorbate) of 60° C. was added to 100 g of Chinese green tea (second picking tea) produced by Josei (heat treatment by steaming), followed by extraction for 5 min while sometimes stirring. Subsequently, solid-liquid separation with flannel filter was performed to obtain 4500 g of an extract (Bx 0.6°). To the extract, 0.04 g of tannase (Kikkoman Corporation: 5000 U/g) was added. The resulting mixture was left to stand at 40° C. for 1 hour to decompose the gallate-type catechin to non-gallate-type catechin (gallate-type catechin has strong astringency, and non-gallate-type catechin has strong bitterness), followed by heating at 90° C. for 1 min to inactivate the enzyme. After cooling to 20° C., the extract was adjusted to Bx 0.5° with deionized water to obtain green tea extract having strong bitterness. Sedanolide was added as a taste-improving agent (masking agent for bitterness) of the present invention to the resulting extract at the concentrations shown in the following Table 3 to obtain green tea drinks.

[3] = 3-n-butylphthalide 0.01 ppb in grapefruit juice
[4] = 3-n-butylphthalide 0.01 ppm in grapefruit juice
[5] = 3-n-butylphthalide 0.1 ppb in grapefruit juice
[6] = 3-n-butylphthalide 0.1 ppm in grapefruit juice
[7] = 3-n-butylphthalide 1 ppb in grapefruit juice
[8] = 3-n-butylphthalide 1 ppm in grapefruit juice
[9] = 3-n-butylphthalide 1 ppt in grapefruit juice
[10] = 3-n-butylphthalide 10 ppm in grapefruit juice
[11] = sedanolide 0.01 ppb in green tea drink having strong bitterness
[12] = sedanolide 0.01 ppm in green tea drink having strong bitterness
[13] = sedanolide 0.1 ppb in green tea drink having strong bitterness
[14] = sedanolide 0.1 ppm in green tea drink having strong bitterness
[15] = sedanolide 1 ppb in green tea drink having strong bitterness
[16] = sedanolide 1 ppm in green tea drink having strong bitterness
[17] = sedanolide 1 ppt in green tea drink having strong bitterness
[18] = sedanolide 10 ppm in green tea drink having strong bitterness

## CCCCC1OC(=O)c2ccccc21 (stereo not shown) [3-n-butylphthalide]
[1]; [3]
  A: the number of panelists who felt no difference from 3-n-butylphthalide-free: 7
  B: the number of panelists who felt some reduction in bitterness: 2
  Flavor judgment: the number of panelists who judged it as most proper bitterness: 0
  N: the number of panelists who hardly felt bitterness: 1
[1]; 3-n-butylphthalide 0.01 ppb, grapefruit juice
  reduction in bitterness at low concentration: some panelists felt some reduction in bitterness
[1]; [4]
  A: the number of panelists who felt no difference from 3-n-butylphthalide-free: 2
  B: the number of panelists who felt some reduction in bitterness: 6
  Flavor judgment: the number of panelists who judged it as most proper bitterness: 2
  N: the number of panelists who hardly felt bitterness: 2
[1]; [5]
  A: the number of panelists who felt no difference from 3-n-butylphthalide-free: 4
  B: the number of panelists who felt some reduction in bitterness: 6
  Flavor judgment: the number of panelists who judged it as most proper bitterness: 0
  N: the number of panelists who hardly felt bitterness: 0
[1]; [6]
  A: the number of panelists who felt no difference from 3-n-butylphthalide-free: 0
  B: the number of panelists who felt some reduction in bitterness: 4
  Flavor judgment: the number of panelists who judged it as most proper bitterness: 5
  N: the number of panelists who hardly felt bitterness: 6
[1]; [7]
  A: the number of panelists who felt no difference from 3-n-butylphthalide-free: 3
  B: the number of panelists who felt some reduction in bitterness: 7
  Flavor judgment: the number of panelists who judged it as most proper bitterness: 0
  N: the number of panelists who hardly felt bitterness: 0
[1]; [8]
  A: the number of panelists who felt no difference from 3-n-butylphthalide-free: 0
  B: the number of panelists who felt some reduction in bitterness: 4
  Flavor judgment: the number of panelists who judged it as most proper bitterness: 3
  N: the number of panelists who hardly felt bitterness: 6
[1]; [9]
  A: the number of panelists who felt no difference from 3-n-butylphthalide-free: 9
  B: the number of panelists who felt some reduction in bitterness: 1
  Flavor judgment: the number of panelists who judged it as most proper bitterness: 0
  N: the number of panelists who hardly felt bitterness: 0
[1]; [10]
  A: the number of panelists who felt no difference from 3-n-butylphthalide-free: 0
  B: the number of panelists who felt some reduction in bitterness: 3
  Flavor judgment: the number of panelists who judged it as most proper bitterness: 0
  N: the number of panelists who hardly felt bitterness: 7
[1]; amount of 3-n-butylphthalide about 0.1 ppb to 1 ppm, grapefruit juice
  overall result of bitterness masking: particularly good results were obtained
[1]; grapefruit juice containing 0.01 ppb to 10 ppm of 3-n-butylphthalide
  bitterness of grapefruit juice (judgment): masked

## CCCCC1OC(=O)C2=CCCCC21 (stereo not shown) [sedanolide]
[2]; amount of sedanolide about 0.1 ppb to 1 ppm, green tea drink
  overall result of bitterness masking: particularly good results were obtained
[2]; green tea drink containing 0.01 ppb to 10 ppm of sedanolide
  bitterness of green tea drink (judgment): masked
[2]; [11]
  A: the number of panelists who felt no difference from sedanolide-free: 8
  B: the number of panelists who fell some reduction in bitterness: 2
  Flavor judgment: the number of panelists who judged it as most proper bitterness: 0
  N: the number of panelists who hardly felt bitterness: 0
[2]; sedanolide 0.01 ppb, green tea drink
  reduction in bitterness at low concentration: some panelists felt some reduction in bitterness
[2]; [12]
  A: the number of panelists who felt no difference from sedanolide-free: 2
  B: the number of panelists who fell some reduction in bitterness: 6
  Flavor judgment: the number of panelists who judged it as most proper bitterness: 2
  N: the number of panelists who hardly felt bitterness: 2
[2]; [13]
  A: the number of panelists who felt no difference from sedanolide-free: 4
  B: the number of panelists who fell some reduction in bitterness: 5
  Flavor judgment: the number of panelists who judged it as most proper bitterness: 0
  N: the number of panelists who hardly felt bitterness: 1
[2]; [14]
  A: the number of panelists who felt no difference from sedanolide-free: 0
  B: the number of panelists who fell some reduction in bitterness: 5
  Flavor judgment: the number of panelists who judged it as most proper bitterness: 5
  N: the number of panelists who hardly felt bitterness: 5
[2]; [15]
  A: the number of panelists who felt no difference from sedanolide-free: 3
  B: the number of panelists who fell some reduction in bitterness: 6
  Flavor judgment: the number of panelists who judged it as most proper bitterness: 0
  N: the number of panelists who hardly felt bitterness: 1
[2]; [16]
  A: the number of panelists who felt no difference from sedanolide-free: 0
  B: the number of panelists who fell some reduction in bitterness: 5
  Flavor judgment: the number of panelists who judged it as most proper bitterness: 3
  N: the number of panelists who hardly felt bitterness: 5
[2]; [17]
  A: the number of panelists who felt no difference from sedanolide-free: 10
  B: the number of panelists who fell some reduction in bitterness: 0
  Flavor judgment: the number of panelists who judged it as most proper bitterness: 0
  N: the number of panelists who hardly felt bitterness: 0
[2]; [18]
  A: the number of panelists who felt no difference from sedanolide-free: 0
  B: the number of panelists who fell some reduction in bitterness: 5
  Flavor judgment: the number of panelists who judged it as most proper bitterness: 0
  N: the number of panelists who hardly felt bitterness: 5
